According to PubChem BioAssay (NCI):
Values joined by “and” are separate entries in the source; they are usually repeats but may differ in a detail not shown here. Identical values can stand only once.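 Cells were grown in 96-well plates and exposed to each compound for 48 hours at five concentrations; endpoints were interpolated linearly between bracketing concentrations, or set to the highest concentration if not reached. The concentration for 50% growth inhibition is given as GI50. Definition used: TGI = concentration required for complete inhibition of growth.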

Key:
Assay in all cases: NCI tumour cell line growth inhibition, 48 h
[1] = system: A549 NSCLC
[2] = system: KM12 colon
[3] = system: RPMI-8226 leukemia
[4] = system: SK-MEL-28 melanoma
[5] = system: HCT-15 colon
[6] = system: SNB-19 CNS
[7] = system: SF-539 CNS
[8] = system: IGROV1 ovarian
[9] = system: SK-MEL-5 melanoma
[10] = system: RXF 393 renal

SMILES	GI50 [1] [µM]	TGI [1] [µM]	GI50 [2] [µM]	TGI [2] [µM]	GI50 [3]	TGI [3]	GI50 [4]	TGI [4]	GI50 [5]	TGI [5] [µM]	GI50 [6] [µM]	TGI [6] [µM]	GI50 [7] [µM]	TGI [7] [µM]	GI50 [8]	TGI [8]	GI50 [9]	TGI [9]	TGI [10]	GI50 [10] [µM]
CCSc1nc(N)c(C#N)c(-c2ccc(OC)c(OC)c2)c1C#N	17	> 50	15.2	> 50	14.8 µM	> 50 µM	> 50 µM	> 50 µM	> 50 µM	> 50	24.7	> 50	19	40.3	5.85 µM	43.6 µM	8.36 µM	29.5 µM		
CC1=C(C(=O)NCc2ccccc2)C(c2ccc(N(C)C)cc2)C(C(=O)NCc2ccccc2)=C(C)N1		> 100		> 100		> 100 µM		> 100 µM				> 100		> 100		> 100 µM		> 100 µM	80.3 µM	
O=C1c2ccccc2-c2c1c1ccc([N+](=O)[O-])cc1c(=O)n2CCN1CCOCC1	> 100	> 100	> 100	> 100	35.7 µM	> 100 µM	> 100 µM	> 100 µM	> 100 µM	> 100	79.2	> 100			> 100 µM	> 100 µM	> 100 µM	> 100 µM		
COc1ccc(OC)c(-c2nc3sc(C)cn3c2/C=C2\C(=O)N(C)c3ccccc32)c1	28.4	> 100	21.9	68.5	13.1 µM	40.2 µM	19.8 µM	43.6 µM	19.8 µM	81.6	26.4	94.7	21.8	42.5	22 µM	66.5 µM	14 µM	27.3 µM		
C#CCn1c2c(c3ccccc3c1=O)C(=O)c1ccccc1-2		57.3		> 100		> 100 µM		> 100 µM		> 100				24.2		80.7 µM		22.1 µM		
COc1ccc(C2C(C(=O)O)=C(CO)Oc3cc4c(cc32)OCO4)c(OC)c1 (configuration not stated)		> 100				> 100 µM		> 100 µM		> 100		> 100		> 100		> 100 µM		> 100 µM	> 100 µM	
COc1ccc(-c2cncn2-c2ccc(-c3nc4cc(OC)c(OC)c(OC)c4s3)cc2)cc1N	5.77	> 100	3.8	> 100			13.7 µM	> 100 µM	4.02 µM	> 100	> 100	> 100	> 100	> 100	4.9 µM	> 100 µM	1.73 µM	4.4 µM	> 100 µM	5.98
O=c1c2cc(Br)ccc2n(C2OC(CO)C(O)C(O)C2O)c(=S)n1-c1ccccc1 (configuration not stated)		> 100		> 100		> 100 µM		> 100 µM		> 100		> 100		> 100		> 100 µM			> 100 µM	
[N-]=[N+]=Nc1nnc(CCCCc2nnc(N=[N+]=[N-])o2)o1		> 100		> 100				> 100 µM		> 100		> 100		> 100				> 100 µM	> 100 µM	
O=C(/C=C/c1ccco1)N1CCN(Cc2ccccc2)CC1		> 100		> 100		> 100 µM		> 100 µM		> 100		> 100		> 100		> 100 µM		> 100 µM		
Nc1ncc(-c2ccc3ncnc(N4CCc5cc(F)c(Cl)cc54)c3c2)cc1C(F)(F)F	1.56	> 100	2.47	> 100	2.33 µM	> 100 µM	2.04 µM	> 100 µM	1.57 µM	> 100	2.62	> 100							1.53 µM	0.274
Clc1ccc2c(NCCNc3nc(N4CCCCC4)nc4ccccc34)ccnc2c1	2.16	9.87	3.39	12.7			1.86 µM	3.52 µM	1.26 µM	3.93	3.06	15.6	1.72	3.42	2.54 µM	9.86 µM	1.86 µM	3.31 µM	3.72 µM	1.81
COc1ccc(/C=C\c2cc(OC)c(OC)c(OC)c2)cc1N/C=C\C(=O)c1c[nH]c2ccccc12	< 0.01	> 100	< 0.01	0.0254	< 0.01 µM	19.6 µM	1.59 µM	> 100 µM	< 0.01 µM	> 100	< 0.01	> 100	< 0.01	< 0.01	< 0.01 µM	> 100 µM	< 0.01 µM	0.0201 µM		
CC[C@H](C)C(=O)O[C@H]1C[C@@H](C)C=C2C=C[C@H](C)[C@H](CC[C@@H]3C[C@@H](O)CC(=O)O3)[C@H]21	12.1	> 100	26.4	> 100	8.88 µM and 8.95 µM	> 100 µM and 53.7 µM and > 30 µM	14.4 µM and 10.4 µM	> 100 µM and 27.1 µM and > 30 µM	5.46 µM and 1.47 µM	> 100					3.22 µM and 5.31 µM	23.2 µM and 29 µM and > 30 µM	10.7 µM and 2.97 µM	> 100 µM and 10.7 µM and 16.1 µM	31.8 µM and 13.8 µM and 17.3 µM	3.48
COc1cc2ccnc(-c3n[nH]c4cc(OC)c(OC)cc34)c2cc1OC		> 100		> 100		> 100 µM		> 100 µM		> 100		> 100		> 100		> 100 µM		> 100 µM		
CC(=O)Nc1ccc(S(=O)(=O)N/N=C(\C)CN2C(=O)c3ccccc3C2=O)cc1		> 100		> 100		> 100 µM				> 100		> 100		> 100		> 100 µM		> 100 µM		
COc1ccc(-n2nc(C(=O)NCC(=O)Nc3nc4cc(OC)ccc4s3)c3ccccc3c2=O)cc1	0.349	1.51				> 100 µM	0.631 µM	2.3 µM	> 24 µM	> 100	1.84	6.07	0.407	1.27	1.18 µM	> 25.3 µM	1.55 µM	> 42.7 µM	2.07 µM	0.698
